# Experimental data reported in the METLIN SMRT retention time set (Domingo-Almenara et al. 2019).
# Assay: gradient 5% acetonitrile 3 min, to 50% in 2 min, to 85% in 15 min, held 3 min, 100 µL/min
# Conditions: column: Zorbax Extend-C18 2.1 x 50 mm; eluents: water / acetonitrile, 0.1% formic acid
# Procedure, shortened: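 Mixtures of ~100 pure standards were chromatographed on a Zorbax Extend-C18 column (2.1 × 50 mm, 1.8 μm) at 100 μL/min using water and acetonitrile, each with 0.1% formic acid. Detection used a quadrupole time-of-flight mass spectrometer in positive and negative ionization mode, and data collection spanned 3 months. Retention time was obtained from adduct peaks picked computationally and each checked manually.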
row,Compound,RP-LC retention time
1,Cc1ncoc1C(=O)N1CC(n2cc(COc3ccc(F)cc3)nn2)C1,722 s
2,COC1OC2COC(c3ccccc3)OC2C(=O)C1NC(=O)c1ccccc1 (stereo unspecified),1050 s
3,O=C(NC1CCCC1)c1ccc2c(c1)CCN2C(=O)C1CC1,751 s
4,CC(CCNC(=O)c1nnc(-c2ccc(S(=O)(=O)N3CCOCC3)cc2)o1)N1CCCCCC1 (stereo unspecified),605 s
5,O=C(c1ccc(-c2csc(C3CC3)n2)cc1)N1CCN(c2ncccn2)CC1,912 s
6,CCC1(CC)NC(=O)N(CC(=O)Nc2ccc(C(=O)OC)cc2)C1=O,671 s
7,O=C(NCCn1nnc2cc(C(=O)N3CCCC3)ccc21)Nc1ccccc1Br,683 s
8,O=C1[C@H]2CN(Cc3ccc(Cl)cc3)C[C@H]2C(=O)N1CCN1CCc2ccccc2C1,740 s
9,Cc1ccc(S(=O)(=O)c2nc(SCC(=O)N3CCCCC3)sc2Cl)cc1,910 s
10,O=C(NC1CCN(Cc2ccccc2)CC1)C1CC(=O)N(c2n[nH]c3cccc(F)c23)C1 (stereo unspecified),591 s
11,CCOc1cc(C(=O)N2CCN(c3c(C)n(C)c(=O)n(C)c3=O)CC2)cc(OCC)c1OCC,810 s
12,CC1CCCN(C(=O)Cn2nc(-c3nc(-c4ccc5c(c4)OCO5)no3)ccc2=O)C1 (stereo unspecified),765 s
13,O=C(NCc1nc(-c2ccc(Cl)cc2)no1)NC1CCCCC1,916 s
14,CC1=NOC(C)(CNC(=O)NC2CCCCC2)C1 (stereo unspecified),659 s
15,CN(C)C1(CC2CC2)CCN(C(=O)c2ccoc2)CC1,556 s
16,CC(C)CNC(=O)N1CC(Oc2ccc(-c3nc(-c4ccccc4)no3)cc2)C1,1060 s
17,CCn1c(=O)n(CC(=O)NCCN2CCC(C)CC2)c(=O)c2cnc(-c3ccc(Cl)cc3)nc21,776 s
18,Cc1ccccc1CNC(=O)CC1CCN(C(=O)c2[nH]c(C)c(C(=O)OC(C)C)c2C)CC1,853 s
19,Cc1ccc(NS(=O)(=O)c2cc3c(s2)CCN(C(=O)C2CCC2)C3)cc1,864 s
20,CCC(CC)CN1CCC(n2c(C)cnc2-c2cccnc2)C1 (stereo unspecified),545 s
21,CN1CCN(CCNC(=O)c2ccc3c(c2)N(S(=O)(=O)c2ccccc2F)CC3)CC1,617 s
22,CC(=O)Nc1nc(-c2ccc3c(c2)N(C)C(=O)C(C)O3)cs1 (stereo unspecified),739 s

row,Compound,RP-LC retention time
1,CCc1nn2c(S(=O)(=O)NC3CCCC3)c(C)nc2s1,799 s
2,O=C(Nc1ccccc1Cl)C1CCCN(c2ncnc3c2nc2n3CCCCC2)C1 (stereo unspecified),851 s
3,CN1C(=O)C2(CCN(C(=O)c3ccnn3C)CC2)c2ccccc21,699 s
4,CCN(CC)C(=O)CS(=O)Cc1cnn(-c2ccccc2)c1-n1cccc1 (stereo unspecified),754 s
5,O=C(NCc1ccc(Cl)cc1)C1CCN(c2cnc3nccnc3c2)CC1,713 s
6,N#Cc1ccc(C(=O)NCC(=O)N2CCCc3ccccc32)c(F)c1,843 s
7,Cc1csc(-c2ccc(N3CCN(C(=O)COc4ccc(F)cc4)CC3)nc2)n1,856 s
8,COc1cc(OC)cc(C(=O)N2CCC3(CC2)NC(=O)c2ccc(F)cc2N3C)c1,734 s
9,Cn1cccc1C(=O)N1CCCCC1c1nncn1Cc1ccccc1 (stereo unspecified),745 s
10,O=C(Nc1ccc(N2CCN(c3ccccc3)C2=O)nc1)c1ccc(F)cc1,934 s
11,OC[C@H]1O[C@@H](n2cnc3c(NC4CCCC4)nc(Cl)nc32)[C@@H](O)C1O (stereo partly specified),713 s
12,Cc1ccc(C)c(NC(=O)CN2C(=O)NC3(CCC(C)CC3)C2=O)c1 (stereo unspecified),777 s
13,CCCCC(=O)Nc1ccc(OCc2cc(C(=O)NC3CC3)no2)cc1,798 s
14,O=C(NCc1ccc(F)cc1F)C1CCN(c2cncnc2N2CCOCC2)CC1,618 s
15,CCCCCn1c(=O)c2c(nc3n2CCN3c2ccc(OC)cc2)n(C)c1=O,1010 s
16,COC(=O)c1cc(C)nc2c1c(=O)n(Cc1c(F)cccc1Cl)c(=O)n2C,965 s
17,O=C(NCC1CCCO1)c1c[nH]c2ncccc12 (stereo unspecified),589 s
18,Cc1nn(-c2ccc(N3CCCC3)nn2)c(C)c1CCC(=O)N1CCCC1,599 s
19,COc1ccc(-c2nc(C)c(C(=O)O)s2)cc1OC,730 s
20,COc1ccc(N2CC(C(=O)N3CCC(C(=O)Nc4nc(C)cs4)CC3)CC2=O)cc1 (stereo unspecified),680 s
21,CCOC(=O)c1c(CN2CCN(CC#N)CC2)n(C)c2cc(Br)c(OC(C)=O)cc12,706 s
22,COc1ccc(S(=O)(=O)N2C[C@H]3CN(C(=O)NCC(C)C)C[C@@H](C2)O3)cc1,729 s

# Next, values leading:
row,RP-LC retention time,Compound
1,821 s,Cc1nc(N2CCN(c3ccccn3)CC2)c2c(C)c(C(=O)Nc3ccc(C)c(Cl)c3)sc2n1
2,678 s,CCCn1cc(CCNC(=O)c2ccnn2CC)c2cccnc21
3,692 s,CNC(=O)c1cccc(Nc2c(-c3ccc(SC)cc3)nc3cnccn23)c1
4,918 s,CCc1noc(NC(C)=O)c1-c1ccc(OC)c(S(=O)(=O)N2CC=C(c3ccccc3)CC2)c1
5,902 s,Cc1cccc(NC(=O)N2CCc3c(c(-c4nnc(-c5ccccc5Cl)o4)nn3C)C2)c1
6,843 s,Cc1cccc(Nc2nc(C(=O)NCc3ccc(F)cc3F)cs2)n1
7,944 s,COc1ccc2c(c1)C=C(C(=O)NCc1ccccc1OC)C=CO2
8,862 s,Cc1ccc(NC(=O)Nc2nc(CC(=O)Nc3ccc(F)c(F)c3)cs2)cc1
9,1000 s,CCN1C(=O)c2cc(S(=O)(=O)Nc3ccccc3C)ccc2Oc2cccnc21
10,1200 s,Cc1ccc(NC(=O)Cn2nc(N3CCCCCC3)c3ccccc3c2=O)cc1C
11,619 s,CC(=O)N1c2ccc(S(=O)(=O)N3CCCC3)cc2CC1C(=O)NCCN(C)Cc1ccccc1 (stereo unspecified)
12,600 s,Cc1ccc2nc(CNC(=O)Cn3nc(C(=O)N4CCCC4)c4ccccc43)[nH]c2c1
13,965 s,CCCn1c(=O)sc2cc(S(=O)(=O)N3CCC(C(=O)Nc4ccccc4)CC3)ccc21
14,548 s,CN(C)CCN(Cc1ccco1)C(=O)Cn1nc(Cc2ccncc2)c2ccccc2c1=O
15,931 s,Cc1cc(-c2nnc(-c3ccccc3)o2)c(C)n1CC(=O)Nc1ccccc1
16,738 s,CCN1CCCn2cc(S(=O)(=O)Nc3ccc(F)c(Cl)c3)cc2C1=O
17,885 s,Cc1cc2c(c(=O)n(-c3ccccc3)c(=O)n2CC(=O)Nc2ccc(Cl)cc2)n1C
18,1030 s,CCN1C(=O)c2cc(S(=O)(=O)NCc3cccc(C)c3)ccc2Oc2cccnc21
19,845 s,Cc1cccc(CNC(=O)CCc2nc3c(C)cccc3c(=O)n2C)c1
20,656 s,Cc1ccc(CNC(=O)Cn2c(=O)c(=O)n(C)c3ncccc32)o1
21,1200 s,CCOc1ccc(NS(=O)(=O)c2ccccc2-c2nc(-c3ccc(F)cc3)no2)cc1
22,733 s,COCCN1CCn2cc(S(=O)(=O)Nc3ccc(F)c(F)c3)cc2C1=O
